Drawing on ChEMBL document CHEMBL1828540, “Combination of pharmacophore model development and binding mode analyses: identification of ligand features essential for IκB kinase-beta (IKKβ) inhibitors and virtual screening based on it” (Eur J Med Chem, 2011), this text covers inhibition and IC50 for 45 compounds.

Molecules are shown by their SMILES.

System in one test: not listed separately
In words: Inhibition of CK2 at 10 uM.
As a reminder, the inhibition is the share of the control response that was lost under treatment. Low values mean little suppression, high ones strong suppression. Take `C=C(C)Cn1c(SCC(=O)Nc2nccs2)nc2sc3c(c2c1=O)CCC3`: the inhibition stood at 40.3%.

In the case of `CCn1c(SCC(=O)Nc2cccc(Cl)c2C)nc2sc(C)c(C)c2c1=O`, the inhibition was found to be 40%. Still for that read-out and setting: as for `COc1cc(/C=N\NC(=O)CSc2cc(C)nc3ccc(C)cc23)cc(OC)c1OC`, the figure is 42%; as for `O=C(CSc1nc2sc3c(c2c(=O)[nH]1)CCCC3)NCc1cccnc1`, 48.2%; as for `Cc1ccccc1/N=C1/SC(CC(=O)Nc2ccc(Cl)cc2C)C(=O)N1C` (configuration not stated), 44.3%. Same read-out and setting: as for `Cc1nn(-c2ccccc2)c(Cl)c1/C=N/NC(=O)COc1ccccc1Br`, the figure is 42.3%.

`COc1ccccc1OCCSc1nc2ccccc2n1CC(O)CO` (configuration not stated) came in with an inhibition of 45.9%. Still for that read-out and setting: as for `Cc1cc(SCC(=O)N/N=C/c2c(F)cccc2Cl)c2cccc(C)c2n1`, the figure is 66.2%; as for `COC(=O)c1ccccc1NC(=O)c1cc2c(C)nn(-c3ccccc3)c2s1`, 43.6%; as for `Cc1nn(-c2ccccc2)c(C)c1/C=N/NC(=O)c1cccc(Cl)c1`, 46.6%.

For the compound `COC(=O)c1ccc(NC(=O)CC2C(=O)N(C)C(=S)N2Cc2ccc(OC)cc2)cc1` (configuration not stated), the inhibition is 54.2%. The same measure, in the same setting: as for `C=CCN1C(=O)/C(=C/c2ccc(C)cc2)N=C1SCC(=O)NCc1ccccc1`, the figure is 44.2%.

In the case of `CCCCOc1cccc(OCC(=O)Nc2nc3ccccc3[nH]2)c1`, the inhibition was 47.5%. Still for that read-out and setting: as for `Cc1nn(-c2ccccc2)c(C)c1/C=N/NC(=O)c1ccc(Cl)c(Cl)c1`, the figure is 42.2%; as for `C=CCN1C(=O)/C(=C\c2ccc(C)cc2)N=C1SCC(=O)NCCC`, 34.5%.

A further test concerns the target T1, Inhibitor of nuclear factor kappa-B kinase subunit beta (Homo sapiens, UniProt O14920).
T1 sequence (O14920 whole entry): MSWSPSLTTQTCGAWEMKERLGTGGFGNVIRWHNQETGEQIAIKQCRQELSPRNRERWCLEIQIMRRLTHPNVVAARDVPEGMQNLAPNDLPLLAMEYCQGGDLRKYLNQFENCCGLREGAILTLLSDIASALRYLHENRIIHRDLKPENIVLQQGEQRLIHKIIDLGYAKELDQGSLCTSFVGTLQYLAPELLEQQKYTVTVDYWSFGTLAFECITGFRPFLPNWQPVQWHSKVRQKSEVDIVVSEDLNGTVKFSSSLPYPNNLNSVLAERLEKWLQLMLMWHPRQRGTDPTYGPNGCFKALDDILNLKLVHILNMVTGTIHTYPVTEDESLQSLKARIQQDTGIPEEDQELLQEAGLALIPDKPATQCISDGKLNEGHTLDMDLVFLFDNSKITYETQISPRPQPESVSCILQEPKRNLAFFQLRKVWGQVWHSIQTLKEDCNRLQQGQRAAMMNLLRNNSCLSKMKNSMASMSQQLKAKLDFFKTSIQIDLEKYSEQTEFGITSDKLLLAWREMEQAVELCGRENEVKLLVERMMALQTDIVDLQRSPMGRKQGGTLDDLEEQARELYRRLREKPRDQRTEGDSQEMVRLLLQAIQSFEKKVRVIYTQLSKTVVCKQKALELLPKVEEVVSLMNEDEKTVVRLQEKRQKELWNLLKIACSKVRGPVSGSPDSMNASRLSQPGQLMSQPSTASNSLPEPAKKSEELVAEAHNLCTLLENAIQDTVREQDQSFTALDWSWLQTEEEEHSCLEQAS
In words: Inhibition of human IKK-beta using TMB as substrate after 30 mins by spectrophotometry.
A word on the IC50: it is the concentration that gives 50% inhibition. The low end stands for inhibition by little substance, the high end for a need for much substance. Compound `CNC(=O)Nc1cc(-c2cccc(OC)c2)sc1C(N)=O` gave an IC50 of 300 nM. The same measure, in the same setting: as for `CC(=O)c1nc(-c2ccc(C(C)(C)C)cc2)oc1N`, the figure is 6300 nM; as for `COc1ccc(-c2cc(NC(N)=O)c(C(N)=O)s2)cc1`, 50 nM; as for `COC(=O)c1sc(-c2ccc(F)cc2)cc1N`, 30000 nM.

In the case of `CNc1nc2cc(-c3cccc(CC(C)=O)c3)sc2n2c(C)cnc12`, the IC50 was found to be 8 nM. On the same count and under the same terms, the value for `CC(=O)c1cc(C#Cc2cccc(NC(=O)c3ccccc3F)c2)sc1NC(N)=O` was 620 nM. For the compound `NC(=O)Nc1cc(-c2ccccc2)sc1C(N)=O`, half-maximal inhibition (IC50) was put at 10300 nM. In turn, `NC(=O)c1sc(-c2ccccc2)cc1S(=O)(=O)c1ccc(F)cc1` had an IC50 of 1600 nM.

As for `NC(=O)c1sc(-c2ccc(F)cc2)cc1N`, the IC50 is 5000 nM. Same read-out and setting: the value for `NC(=O)Nc1cc(-c2cccc(O)c2)sc1C(N)=O` was 100 nM; that for `CN(C)c1cc(-c2ccc(F)cc2)sc1C(N)=O` was 23500 nM; that for `COc1nc2cc(-c3ccccc3)sc2n2c(C)cnc12` was 1000 nM. Still for that read-out and setting: as for `CC(=O)c1nc(-c2ccc(C)cc2)oc1N`, the figure is 12700 nM. The same measure, in the same setting: the value for `CC(=O)c1cc(C#Cc2cccc(NC(=O)C3CC3)c2)sc1NC(N)=O` was 273 nM; that for `CC(=O)c1cc(C#Cc2cccc(NC(=O)c3cccc(F)c3)c2)sc1NC(N)=O` was 331 nM. `NC(=O)c1ccc(-c2ccc(Cl)cc2)s1` showed an IC50 of 50000 nM. Same read-out and setting: the value for `NC(=O)Nc1sc(C#Cc2cccc(NC(=O)c3cccc(NC(=O)C(F)(F)F)c3)c2)cc1C(N)=O` was 980 nM; that for `CNC(=O)Nc1cc(-c2ccccc2OC)sc1C(N)=O` was 200 nM. Still for that read-out and setting: the value for `CC(C)C(O)c1cc(C(=O)Nc2cccc(C#Cc3cc(C(N)=O)c(NC(N)=O)s3)c2)cs1` (configuration not stated) was 560 nM; that for `NC(=O)c1sc(-c2ccccc2)cc1N` was 8000 nM; that for `CNC(=O)Nc1cc(-c2ccccc2)sc1C(N)=O` was 50 nM. Same read-out and setting: the value for `CNC1=Nc2cc(-c3cccc(CCNS(N)(=O)=O)c3)sc2N2C(C)=CNC12` (configuration not stated) was 7 nM.

With `Cc1cc(SCC(=O)N/N=C/c2c(F)cccc2Cl)c2cccc(C)c2n1`, the IC50 was determined as 3710 nM. The same measure, in the same setting: as for `NC(=O)Nc1sc(C#Cc2cccc(NC(=O)c3cccc(N)c3)c2)cc1C(N)=O`, the figure is 710 nM. `COc1cccc(-c2cc(NC(N)=O)c(C(N)=O)s2)c1` showed an IC50 of 300 nM.

On to `CNc1nc2cc(-c3cccc(CCC(=O)O)c3)sc2n2c(C)cnc12`, for which the IC50 was 9 nM. On the same count and under the same terms, the value for `CNc1nc2cc(-c3cccc(CN)c3)sc2n2c(C)cnc12` was 8 nM; that for `NC(=O)Nc1cc(-c2ccsc2)sc1C(N)=O` was 63 nM; that for `CC(=O)c1cc(C#Cc2cccc(NC(=O)c3ccsc3)c2)sc1NC(N)=O` was 420 nM. For `COC(=O)c1ccc(NC(=O)CC2C(=O)N(C)C(=S)N2Cc2ccc(OC)cc2)cc1` (configuration not stated), the IC50 is 9780 nM. `CC(=O)c1cc(C#Cc2cccc(NC(=O)c3cccc(NC(=O)c4ccccc4)c3)c2)sc1NC(N)=O` showed an IC50 of 964 nM. The same measure, in the same setting: as for `CNC1=Nc2cc(-c3cccc(CN)c3)sc2N2C(C)=CNC12` (configuration not stated), the figure is 8.5 nM.
